Measured values published in patent US5869486A, “Fused pyrimidines and pyriazines as pharmaceutical compounds” (Ono Pharmaceutical Co., Ltd., priority 1995, dated 1999).

Biological target: cGMP-PDE (Homo sapiens, UniProt O76074)
Test: Inhibitory effect on cGMP-PDE
Type: biochemical
Conditions: PDE IC isolated from human platelets; substrate 3H-cGMP; tested as 2HCl salt (2, 2(3)), CH3SO3H salt (2(5), 2(7), 5, 6(1)), free base (4, 7, 8)

IC50 [nM]	Compound
3100	c1ccc(CNc2cc(-c3ccccc3)nc3ncnn23)cc1 [Example 7]
3200	[O-][S+]1CCCc2nc(-n3ccnc3)nc(NCc3ccccc3)c21 (stereo not shown) [Example 5]
380	O=S1(=O)CCc2nc(-n3ccnc3)nc(NCc3ccccc3)c2C1 [Example 6(1)]
125	Cc1csc2nc(-n3ccnc3)nc(NCc3ccccc3)c12 [Example 2, 4-benzylamino-2-(1-imidazolyl)-5-methylthieno[2,3-d]pyrimidine dihydrochloric acid]
24	c1cn(-c2nc3c(c(NCc4ccc5c(c4)OCO5)n2)CSCC3)cn1 [Example 2(7)]
100	c1ccc(CNc2nc(-n3ccnc3)nc3c2SCCC3)cc1 [Example 2(3)]
100	c1ccc(CNc2nc(-n3ccnc3)nc3c2CSCC3)cc1 [Example 2(5)]
940	c1ccc(CNc2cc(-c3ccccc3)nn3cnnc23)cc1 [Example 8]
380	O=C(O)C1CCN(c2nc3c(c(NCc4ccc5c(c4)OCO5)n2)CSCC3)CC1 [Example 4]

Tested on: TXA2 synthetase
Test: Inhibitory effect on TXA2 synthetase (TXB2 synthesis in A23187-stimulated whole blood)
Type: cell-based, Male Wistar rats
Conditions: at 10 μM; rat heparinized whole blood, Ca ionophore A23187, TXB2 by EIA; CH3SO3H salt
Procedure: Male Wistar rats were starved overnight. Five hundreds microliter of heparinized (10 U/mL) whole blood was collected from abdominal aorta using polyethylene syringe (needle: 22 or 26 G). The blood freshly drawn from animal was preincubated with 5 μL of test compound at 37° C. Five minutes later, 2.5 μL of 6 mM of Ca ionophore A23187 (final concentration of 30 μM) was added into tube, and incubation mixture was further incubated for 15 min. The reaction was terminated by centrifugation of tubes at 12,000 rpm for 2 min. TXB2 content in the supernatant was determined by EIA as follows.
One milliliter of 0.5M glycine-HCl buffer (pH 3.2) was added to 100 μL of sample. The samples were mixed well and centrifuged at 1,700 G for 10 min. at 4° C. The extracted supernatant was applied to a SEP-PAK (registered Trade Mark) C18 cartridge (Waters Assoc.). After washing with 10 mL of distilled water followed by 10 mL each of 15% ethanol and petroleum ether, the sample was eluted with 3 mL of ethyl acetate. The ethyl acetate fraction was evaporated to dryness under gentle N2 stream and the residue was dissolved in EIA buffer (final volume of 1 mL) following the addition of 300 μL of 0.01M NaHCO3 --NaOH buffer (pH 10.0). EIA for TXB2 was carried out according to a legend attached to the kit (Chyman Chemical Co., Inc.). Overall recovery of TXB2 in this extraction procedure was 90%. […]

Compound	Inhibitory activity on TXA2 synthetase [%]
c1cn(-c2nc3c(c(NCc4ccc5c(c4)OCO5)n2)CSCC3)cn1 [Example 2(7)]	63
